{"source": "patent US20240254087A1", "about": "“SELECTIVE, PARTIAL, AND ARRESTIN-BIASED 5-HT2A AGONISTS WITH UTILITY IN VARIOUS DISORDERS” (Saint Joseph's University, priority 2021, published 2024)", "key": {"5-HT2B": {"target": "5-HT2B (Homo sapiens, UniProt P41595)", "sequence (P41595 whole entry)": "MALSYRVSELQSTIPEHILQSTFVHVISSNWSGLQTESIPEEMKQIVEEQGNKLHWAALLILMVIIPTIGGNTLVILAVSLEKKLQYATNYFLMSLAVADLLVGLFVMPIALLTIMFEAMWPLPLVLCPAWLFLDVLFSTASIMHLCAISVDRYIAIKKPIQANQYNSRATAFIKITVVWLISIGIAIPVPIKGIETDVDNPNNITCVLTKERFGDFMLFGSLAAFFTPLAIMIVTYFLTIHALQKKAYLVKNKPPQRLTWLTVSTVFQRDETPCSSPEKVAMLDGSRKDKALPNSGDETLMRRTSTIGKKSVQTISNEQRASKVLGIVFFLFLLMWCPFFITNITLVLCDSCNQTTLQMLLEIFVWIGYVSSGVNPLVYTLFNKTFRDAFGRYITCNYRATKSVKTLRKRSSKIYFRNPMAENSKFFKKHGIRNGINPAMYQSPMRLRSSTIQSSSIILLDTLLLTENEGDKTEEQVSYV", "experiment": "BRET Gq dissociation, 5-HT2B", "type": "cell-based", "set-up": "expressed in transfected cells; host or cells: HEK293T, transient", "details": "for Emax: read-out: 5-HT2B Gq Dissociation (BRET) EMAX ± SEM (%5-HT)"}, "male C57BL/6J mice": {"system": "male C57BL/6J mice", "experiment": "Blockade of agonist-induced HTR by pretreatment", "type": "in vivo, mouse", "details": "pretreatment of mice with test compound", "experimental": "(§1) Vehicle or the NMDA receptor antagonist PCP (5 mg/kg) was injected IP 10 min after SC administration of vehicle or 25N-NB1-Nap (16), and then the mice were placed in the test chambers 10 min later for a 60-min assessment of locomotor activity. (C). […] Mice were treated with vehicle or M100907 (0.03 mg/kg SC) 10 min prior to vehicle or PCP (5 mg/kg IP): animals were placed in the test chambers 10 min after treatment with PCP.\nMale C57BL/6J mice (6-8 weeks old) from Jackson Labs (Bar Harbor, ME, USA) were used for the behavioral experiments. The mice were housed on a reversed light-dark cycle (lights on at 1900 h, off at 0700 h) in an AAAC-approved vivarium at the University of California San Diego. Mice were housed up to four per cage in a climate-controlled room and with food and water provided ad libitum except during behavioral testing. Testing was performed between 1000 and 1800 h (during the dark phase of the light-dark cycle). The studies were conducted in accordance with National Institutes Health (NIH) guidelines and were approved by the University of California San Diego Institutional Animal Care and Use Committee.\nThe mice were allowed to recover from the magnet implantation surgeries for at least 1 week prior to behavioral testing. HTR experiments were conducted in a well-lit room, and the mice were allowed to habituate to the room for at least 1 h prior to testing. Head twitches was assessed in a 12-cm diameter glass cylinder surrounded by a magnetometer coil. Coil voltage was low-pass filtered (2 kHz), amplified, and digitized (20-kHz sampling rate) using a Powerlab/8SP with LabChart v 7.3.2 (ADInstruments, Colorado Springs, CO, USA). […] HTR counts were analyzed using one-way ANOVAs. Dunnett's test was used for post hoc comparisons."}, "5-HT2A [1]": {"target": "T1, 5-HT2A (Homo sapiens, UniProt P28223)", "T1 sequence (P28223 whole entry)": "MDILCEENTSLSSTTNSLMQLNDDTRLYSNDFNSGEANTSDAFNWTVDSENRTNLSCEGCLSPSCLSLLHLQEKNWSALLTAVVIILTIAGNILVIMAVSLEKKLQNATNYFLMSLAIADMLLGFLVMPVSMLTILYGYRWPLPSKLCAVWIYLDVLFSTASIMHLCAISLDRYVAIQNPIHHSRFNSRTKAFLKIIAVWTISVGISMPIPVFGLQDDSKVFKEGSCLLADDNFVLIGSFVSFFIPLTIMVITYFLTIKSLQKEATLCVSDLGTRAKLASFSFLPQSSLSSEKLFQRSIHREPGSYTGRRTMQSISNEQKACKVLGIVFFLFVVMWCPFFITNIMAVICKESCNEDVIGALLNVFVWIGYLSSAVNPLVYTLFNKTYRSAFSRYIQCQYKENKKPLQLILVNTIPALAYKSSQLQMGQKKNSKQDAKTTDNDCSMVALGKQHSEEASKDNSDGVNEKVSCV", "experiment": "NanoLuc internalization assay", "type": "cell-based", "details": "60 min"}, "5-HT2A [2]": {"target": "T1, 5-HT2A", "experiment": "[3H]-ketanserin displacement, 5-HT2A membranes", "type": "binding", "set-up": "ES-313-M400UA (membranes); host or cells: CHO-K1"}, "h5-HT2A": {"target": "T2, h5-HT2A (Homo sapiens, UniProt P28223)", "T2 construct": "expressed in transfected cells", "T2 sequence (P28223 whole entry)": "as above", "experiment": "Antagonism of 5-HT induced Ca2+ flux activation", "type": "cell-based", "details": "FIG. 1D", "experimental": "as §1, with “(A). DOI, a hallucinogen and 5-HT2A agonist, was administered IP 10 min after SC administration of vehicle or test drug. A and then HTR activity was assessed for 30 minutes. *p<0.001, significant difference vs. vehicle (B). Vehicle” for “Vehicle”, “PCP. Animals were tested for 60 min. *p<0.01 vs. vehicle: ^#p<0.01 vs. PCP alone.” for “PCP.”\nCalcium flux was measured using stable-expressing 5-HT2 Flp-In 293 T-Rex Tetracycline inducible system described previously (Investigation of the Structure-Activity Relationships of Psilocy bin Analogues, ACS Pharmacol. Transl. Sci. 2020, Publication Date: Dec. 14, 2020, https://doi.org/10.1021/acsptsci.0c00176). […] After dye load, cells were allowed to equilibrate to room temperature for 15 minutes, and then placed in a FLIPR^TETRA fluorescence imaging plate reader (Molecular Devices). Fluorescence for the FLIPR^TETRA were programmed to read baseline fluorescence for 10 s (1 read/s), and afterward 5 μl of drug per well was added and read for a total of 5-10 min (1 read/s). […]"}, "5-HT2A [3]": {"target": "T1, 5-HT2A", "experiment": "Antagonism of 5-HT-induced Gq signaling (BRET)", "type": "cell-based", "set-up": "expressed in transfected cells; host or cells: HEK293T, transient"}}, "note": "“Also recorded” adds a separate entry of the source.", "data": [{"smiles": "COc1cc([N+](=O)[O-])c(OC)cc1CCNCc1ccccc1[N+](=O)[O-]", "note": "[25N-NBNO2 (15), [2-(2,5-dimethoxy-4-nitrophenyl)ethyl][(2-nitrophenyl)methyl]amine]", "values": [{"measurement": "5-HT2B Gq Dissociation (BRET) EMAX ± SEM (%5-HT)", "setting": "5-HT2B", "value": "No activity"}, {"measurement": "5-HT2B Gq Dissociation (BRET) pEC50 ± SEM", "setting": "5-HT2B", "value": "No activity"}]}, {"smiles": "COc1cc([N+](=O)[O-])c(OC)cc1CCNCc1cccc(C)c1O", "note": "[25N-NB-2-OH-3-Me (18), 2-({[2-(2,5-dimethoxy-4-nitrophenyl)ethyl]amino}methyl)-6-methylphenol]", "values": [{"measurement": "Blockade of the HTR induced by DOI", "setting": "male C57BL/6J mice", "value": "blocked the HTR; also recorded: can block the HTR"}, {"measurement": "5-HT2B Gq Dissociation (BRET) EMAX ± SEM (%5-HT)", "setting": "5-HT2B", "value": "No activity"}, {"measurement": "5-HT2B Gq Dissociation (BRET) pEC50 ± SEM", "setting": "5-HT2B", "value": "No activity"}]}, {"smiles": "COc1cc([N+](=O)[O-])c(OC)cc1CCN", "note": "[2C-N (1), 2-(2,5-dimethoxy-4-nitrophenyl)ethan-1-amine, reference compound]", "values": [{"measurement": "EC50", "setting": "5-HT2B", "value": 74.1, "unit": "nM"}, {"measurement": "Emax", "setting": "5-HT2B", "value": "87.7 ± 2.8", "unit": "%"}]}, {"smiles": "COc1cc([N+](=O)[O-])c(OC)cc1CCNCc1ccccc1OC", "note": "[25N-NBOMe (4), [2-(2,5-dimethoxy-4-nitrophenyl)ethyl] [(2-methoxyphenyl)methyl]amine]", "values": [{"measurement": "Internalization of 5-HT2A receptors", "setting": "5-HT2A [1]", "value": "strong internalization"}, {"measurement": "Ki", "setting": "5-HT2A [2]", "value": 1.41, "unit": "nM"}, {"measurement": "EC50", "setting": "5-HT2B", "value": 3.89, "unit": "nM"}, {"measurement": "Emax", "setting": "5-HT2B", "value": "61.8 ± 2.3", "unit": "%"}]}, {"smiles": "COc1cc([N+](=O)[O-])c(OC)cc1CCNCc1cccc2ccccc12", "note": "[25N-N-1-Nap (16), [2-(2,5-dimethoxy-4-nitrophenyl)ethyl][(naphthalen-1-yl)methyl]amine]", "values": [{"measurement": "Blockade of the HTR induced by DOI", "setting": "male C57BL/6J mice", "value": "blocked the HTR"}, {"measurement": "Internalization of 5-HT2A receptors", "setting": "5-HT2A [1]", "value": "potent and strong internalization"}, {"measurement": "Antagonism of 5-HT induced h5-HT2A Ca2+ flux activation", "setting": "h5-HT2A", "value": "Antagonism"}, {"measurement": "Ki", "setting": "5-HT2A [2]", "value": 4.27, "unit": "nM"}, {"measurement": "5-HT2B Gq Dissociation (BRET) EMAX ± SEM (%5-HT)", "setting": "5-HT2B", "value": "No activity"}, {"measurement": "5-HT2B Gq Dissociation (BRET) pEC50 ± SEM", "setting": "5-HT2B", "value": "No activity"}, {"measurement": "Antagonism of 5-HT-induced 5-HT2A-mediated Gq signaling", "setting": "5-HT2A [3]", "value": "antagonized"}]}, {"smiles": "COc1cc([N+](=O)[O-])c(OC)cc1CCNCc1ccccc1", "note": "[25N-NB (2), Benzyl[2-(2,5-dimethoxy-4-nitrophenyl)ethyl]amine]", "values": [{"measurement": "EC50", "setting": "5-HT2B", "value": 38, "unit": "nM"}, {"measurement": "Emax", "setting": "5-HT2B", "value": "32.6 ± 2.3", "unit": "%"}]}, {"smiles": "COc1cc([N+](=O)[O-])c(OC)cc1CCNCc1ccccc1-c1ccccc1", "note": "[25N-NBPh (17), ({[1,1′-biphenyl]-2-yl}methyl)[2-(2,5-dimethoxy-4-nitrophenyl)ethyl]amine]", "values": [{"measurement": "Blockade of the HTR induced by DOI", "setting": "male C57BL/6J mice", "value": "blocked the HTR"}, {"measurement": "Internalization of 5-HT2A receptors", "setting": "5-HT2A [1]", "value": "potent and strong internalization"}, {"measurement": "Antagonism of 5-HT induced h5-HT2A Ca2+ flux activation", "setting": "h5-HT2A", "value": "Antagonism"}, {"measurement": "EC50", "setting": "5-HT2B", "value": 316, "unit": "nM"}, {"measurement": "Emax", "setting": "5-HT2B", "value": "47 ± 5.5", "unit": "%"}, {"measurement": "Antagonism of 5-HT-induced 5-HT2A-mediated Gq signaling", "setting": "5-HT2A [3]", "value": "antagonized"}]}, {"smiles": "COc1cc([N+](=O)[O-])c(OC)cc1CCNCc1ccccc1I", "note": "[25N-NBI (10)]", "values": [{"measurement": "EC50", "setting": "5-HT2B", "value": 29.5, "unit": "nM"}, {"measurement": "Emax", "setting": "5-HT2B", "value": "21.8 ± 2.3", "unit": "%"}]}]}
